Source: PMC6315388, “Azasulfurylpeptide Modulation of CD36-Mediated Inflammation Without Effect on Neovascularization” (Biomedicines, 2018)
Like-named read-outs stand apart in the source and are kept apart here. Marks after values point to notes of the source that are not given here. Starred links: 1 amine or outer side, 2 acyl side, 3 side chain; linkers in the order of their positions; H or OH if unused. Non-standard residues stand in square brackets, D forms with d. Residues, ends and D or L forms follow the SMILES beside them. aza(4-F)Phe = aza-4-fluorophenylalanine (alpha-carbon replaced by nitrogen, para-fluoro), O=C(N(Cc1ccc(F)cc1)N[*:1])[*:2]; X1 = O=C([C@@H](Cc1ccccc1)NS(=O)(=O)N(Cc1ccc(F)cc1)N[*:1])[*:2]; azaTyr = O=C(N(Cc1ccc(O)cc1)N[*:1])[*:2]

How the values were obtained:
CD36 [1] = biological target: T1, CD36 (Rattus norvegicus, UniProt Q07969); assay: Competition with [125I]-Tyr-Bpa-Ala-hexarelin tracer for CD36 binding on purified rat heart membranes; settings: purified membranes from rat heart, read-out: CD36 binding affinity IC50
T1 construct: purified membranes from rat heart as a source of CD36; from tissue; host or cells: rat heart (purified membranes)
T1 sequence (Q07969 whole entry): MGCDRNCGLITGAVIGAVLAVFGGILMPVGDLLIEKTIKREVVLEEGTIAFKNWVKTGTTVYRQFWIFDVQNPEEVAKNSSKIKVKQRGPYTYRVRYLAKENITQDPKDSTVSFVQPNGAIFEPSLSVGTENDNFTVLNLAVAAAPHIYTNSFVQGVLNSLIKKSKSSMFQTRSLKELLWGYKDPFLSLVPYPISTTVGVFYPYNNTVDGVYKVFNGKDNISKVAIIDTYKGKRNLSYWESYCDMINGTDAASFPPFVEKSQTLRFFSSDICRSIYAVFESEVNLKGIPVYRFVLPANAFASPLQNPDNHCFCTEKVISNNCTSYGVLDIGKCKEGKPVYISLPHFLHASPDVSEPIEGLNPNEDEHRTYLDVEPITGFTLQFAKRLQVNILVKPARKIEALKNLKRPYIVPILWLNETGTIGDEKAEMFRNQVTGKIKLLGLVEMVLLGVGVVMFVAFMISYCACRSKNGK
Experimental: The ability of [(4-F)AsF^4]-GHRP-6 (3c) to compete with the radiolabeled [^125I]-Tyr-Bpa-Ala-hexarelin used as tracer for CD36 binding was tested on purified membranes from rat heart as a source of CD36 [36].

[2] = test system: NO overproduction in J774 macrophage cell line elicited by TLR-2 agonist (R-FSL-1); assay: Modulation of TLR2 agonist (R-FSL-1)-induced overproduction of nitric oxide in J774 macrophage cell line (nitrite, DAN fluorescence); assay type: cell-based, murine; settings: J774 macrophages; for NO inhibition Fold of 1: 2 h pre-incubation, overnight stimulation with 300 ng/mL R-FSL-1; for Inhibitory effect on R-FSL-elicited NO production (in words): R-FSL-1
Experimental: The murine J774A.1 macrophage cell lines were obtained from American Type Cell Collection (ATCC #TIB-67), seeded at 1.5 × 10^5 cells/well in Dulbecco’s modified eagle media (DMEM) containing 100U/mL of penicillin (Pen) and 100 μg/mL of streptomycin (Strep) on a 48-well plate (Costar® #3548), and incubated at 37 °C with 5% CO2. After 2 h, the medium of adhered cells was changed to DMEM-Pen/Strep containing 0.2% of bovine serum albumin (BSA), and supplemented with either azasulfurylpeptide 3a–f or [azaK^6]-GHRP-6 as a negative control. After 2 h of pre-incubation, the cells were stimulated overnight with 300 ng/mL of R-FSL-1. Supernatants were collected for fluorescence determination of nitrite using 2,3-diaminonaphtalene (DAN). Briefly, 25 μL of sample was incubated with 0.5 μg of DAN in a 100 μL final volume of phosphate buffer (50 mM, pH 7.5) at rt in the dark. After 15 min, the reaction was stopped with 20 µL of NaOH (2.8N) and the plate was read using a fluorescence plate reader (TECAN® Safire, λexc 365 nm and λem 430 nm).

[3] = test system: TNFα secretion in peritoneal macrophages; assay: TNFα secretion by peritoneal macrophages stimulated with R-FSL-1 (ELISA); assay type: cell-based, C57BL/6 mice; settings: 1 µM peptide, 2 h pretreatment, R-FSL-1 300 ng/mL, NA: no activity
Experimental: (§1) Peritoneal macrophage cells from C57BL/6 mice were harvested from sterile DMEM cell-culture medium (Wisent # 319-005-CL), allowed to adhere for 1 h at 37 °C in a 5% CO2 atmosphere, and washed twice with PBS to remove non-adherent cells. Macrophages (0.5 × 10^6 cells/well) were plated in 48 well-culture plates with DMEM containing 0.2% of bovine serum albumin (BSA), pretreated for 2 h with azasulfurylpeptides 3b–e or [azaK^6]-GHRP-6 (1 µM), before stimulation with a TLR2 ligand: R-FSL-1 (Invivogen® #L7022) at 300 ng/mL interferon gamma (IFNγ R&D Systems® Minneapolis, MN, USA # 172-5201) at 20 ng/mL for 4 or 24 h. The supernatants were recovered, and ELISA (eBioscience® #88-7324; 88-7391) was performed to determine the levels of proinflammatory cytokine and chemokine (TNFα, MCP-1). The effect on NF-κB activation was documented on cell lysates after 0, 5, 10, 15 and 30 min stimulation with R-FSL1, using NF-κB p65/RelA specific ELISA-based assay (eBioscience® #85-86083). The results were expressed as mean ± SEM and analyzed statistically by a one-way analysis of variance (ANOVA) with a Dunnett as a post-test. Level of significance was set at P < 0.05.

[4] = test system: subretinal IBA-1 positive cells (activated microglia/macrophages); assay: Blue-light illumination model of retinal inflammation: IBA-1-positive cells in the subretinal space; assay type: in vivo; settings: ApoE−/− mice, 1000 lux blue light 5 d, 289 nmol/kg s.c. for 7 consecutive days, vs illuminated vehicle-treated mice, n = 3–5
Experimental: Apo E deficient (ApoE^−/−) mice were obtained from The Jackson Laboratory (Bar Harbor, ME, USA). Animals were housed under 12 h light/dark cycles and fed ad libitum with a standard rodent diet. All experimental procedures were done in accordance with the Animal Ethics Committee at Université de Montreal (CDEA, project 12-012 approved on 26 January 2013) and the Canadian Council on Animal Care guidelines for use of experimental animals.
Three to four-month-old ApoE^−/− mice were exposed to blue LED-light (Yescom USA, Inc., City Of Industry, CA, USA) for 5 d at 1000 lux illumination without previous dark-adaptation. For pupil dilatation, ophthalmic atropine solution 1% (Alcon, Fort Worth, TX, USA) was applied to both eyes daily. Aza- and azasulfurylpeptides 1, 2 and 3c or [azaK^6]-GHRP-6 (289 nmol/kg) were administered subcutaneously at 24 h following blue-light exposure for 7 consecutive days. At the end of the blue-light exposure period, the mice were maintained on a 12:12 h light: dark cycle for 3 days, before being sacrificed. Enucleated eyes were fixed in 4% paraformaldehyde (PFA) for 15 min at rt and sectioned at the limbus; the anterior segments were discarded. The posterior eye cups consisting of retinal pigment epithelium (RPE)/choroid/sclera complex were collected and prepared for immunofluorescence analysis.
RPE/choroid/sclera flat-mounts were treated with PBS solution containing 0.1% Triton 100× and 10% fetal bovine serum (FBS) or 5% BSA (saturation buffer) for 45 min. Specimens were incubated overnight at 4 °C with primary antibodies diluted in saturation buffer. Immunofluorescence was performed using polyclonal rabbit anti-IBA-1 as marker of activated cells. […] Flatmounts were analyzed using an IX81 Olympus fluorescence microscope (Richmond Hill, ON, Canada). […]
IBA-1–stained cells were counted on flatmounts from control and illuminated mice injected daily with 0.9% NaCl or with aza- and azasulfurylpeptides 1, 2 and 3c or [azaK^6]-GHRP-6 (289 nmol/kg). Cell numbers were expressed as the mean number of IBA-1–positive cells in subretinal space. […]

CD36 [5] = biological target: T1, CD36; settings: read-out: CD36 binding affinity IC50; cited from earlier work
[6] = test system: mouse choroidal explants (RPE/choroid/sclera complex); assay: Microvascular sprouting on choroid explant as index of angiogenesis; assay type: cell-based; settings: 10^−6 M, 24 h, Matrigel-embedded mouse choroidal explants, n = 3–4
Experimental: Choroidal explants were set as described previously. Briefly, enucleated mice eyes with and without treatment with aza- and azasulfurylpeptides 1, 2 and 3c or [azaK^6]-GHRP-6 were collected and dissected to obtain the complex consisting of the RPE/choroid/sclera, which was cut in 16 explant fragments and cultured in 20 µL of Matrigel (BD biosciences, San Jose, CA, USA) in 24-wells plates (Sarstedt Inc., St. Leonard, QC, Canada). […] Phototographs of explants were taken under microscopy (T0 and T24 h). The explants were washed with endothelial basal medium (EBM) and incubated in EBM with NaCl or CD36 ligands at 10^−6 M for 24 h. The sprouting surface was assessed by image analysis using imagen J software. Ratios (sprouting surface at T24 h, sprouting surface at T0)/sprouting surface at T0 were determined. Numerical results were expressed as mean ± SEM. Data were compared using one-way ANOVA with Dunnett’s post-test. P < 0.05 was considered statistically significant (Prism software version 5.01; graphpad Software, San Diego, CA, USA).

[7] = test system: MCP-1 secretion in peritoneal macrophages; assay: MCP-1 secretion by peritoneal macrophages stimulated with R-FSL-1 (ELISA); assay type: cell-based, C57BL/6 mice; settings: 1 µM peptide, 2 h pretreatment, R-FSL-1 300 ng/mL, NA: no activity
Experimental: as §1

Molecule	NO inhibition Fold of 1 [2]	Inhibitory effect on R-FSL-elicited NO production (in words) [2]	TNFα inhibition Fold of 1 [3]	Decrease of IBA-1+ cell accumulation in the subretina [4]	other results
C[C@H](NC(=O)[C@@H](Cc1c[nH]c2ccccc12)NC(=O)[C@@H](N)Cc1c[nH]cn1)C(=O)NN(Cc1ccc(F)cc1)S(=O)(=O)N[C@H](Cc1ccccc1)C(=O)N[C@@H](CCCCN)C(N)=O [3c, H-His-D-Trp-Ala-(4-F)AsF-D-Phe-Lys-NH2] (H-H[dW]A[X1]K-NH2)	–	–	–	–	IC50 (CD36 [1]): 2530 nM
H-Ala-D-Trp-Ala-AsF(4-F)-D-Phe-Lys-NH2 [3f]	-0.04 Fold of 1	limited inhibitory effect	–	–	–
H-His-D-Trp-Ala-(4-MeO)AsF-D-Phe-Lys-NH2 [3d]	1.5 Fold of 1	–	1.5 Fold of 1	–	–
H-His-D-Trp-Ala-AsF(4-HO)-D-Phe-Lys-NH2 [3b]	0.2 Fold of 1	–	–	–	–
H-His-D-Trp-Ala-AsF-D-Phe-Lys-NH2 [3a]	1.6 Fold of 1	reduced significantly NO production	–	50%	–
H-His-D-Trp-Ala-AsNal-D-Phe-Lys-NH2 [3e]	0.06 Fold of 1	limited inhibitory effect	–	–	–
His-D-Trp-Ala-aza(4-F)Phe-D-Phe-Lys-NH2 (H-H[dW]A[aza(4-F)Phe][dF]K-NH2; SMILES C[C@H](NC(=O)[C@@H](Cc1c[nH]c2ccccc12)NC(=O)[C@@H](N)Cc1c[nH]cn1)C(=O)NN(Cc1ccc(F)cc1)C(=O)N[C@H](Cc1ccccc1)C(=O)N[C@@H](CCCCN)C(N)=O) [compound 2, semicarbazide analog of GHRP-6, CD36 ligand]	–	–	–	–	IC50 (CD36 [5]): 6060 nM
His-D-Trp-Ala-aza(4-F)Phe-D-Phe-Lys-NH2 [compound 2, semicarbazide analog of GHRP-6, CD36 ligand]	1.4 Fold of 1	–	0.87 Fold of 1	50%	Effect on choroidal microvascular sprouting (in words) [6]: inhibited microvascular sprouting; MCP-1 inhibition Fold of 1 [7]: 0.97 Fold of 1
His-D-Trp-Ala-azaTyr-D-Phe-Lys-NH2 (H-H[dW]A[azaTyr][dF]K-NH2; SMILES C[C@H](NC(=O)[C@@H](Cc1c[nH]c2ccccc12)NC(=O)[C@@H](N)Cc1c[nH]cn1)C(=O)NN(Cc1ccc(O)cc1)C(=O)N[C@H](Cc1ccccc1)C(=O)N[C@@H](CCCCN)C(N)=O) [compound 1, semicarbazide analog of GHRP-6, CD36 ligand]	–	–	–	–	IC50 (CD36 [5]): 1900 nM
His-D-Trp-Ala-azaTyr-D-Phe-Lys-NH2 [compound 1, semicarbazide analog of GHRP-6, CD36 ligand]	1 ^a Fold of 1	–	1 ^b Fold of 1	50%	Effect on choroidal microvascular sprouting (in words) [6]: inhibited microvascular sprouting; MCP-1 inhibition Fold of 1 [7]: 1 ^c Fold of 1
